US11273217B2, “Cancer treatment composition combining anti-CD26 antibody and other anticancer agent” (Y's AC Co., Ltd., priority 2015, dated 2022)

Test system: H2452 cells
Assay: MTT cell growth assay, H2452
Format: cell-based
Conditions: day 2
Method: MESO1 or H2452 cells (2×10^3 cells/well) were inoculated to a 96-well plate. One hour later, cisplatin or pemetrexed was added thereto at 10^−9, 10^−8, 10^−7, 10^−6, 10^−5, or 10^−4 M (n=6). At day 2, MTT assay was conducted.
H2452 cells (2×10^3 cells/well) were inoculated to a 96-well plate. One hour later, the combination of 0.03, 0.3, or 1 μM cisplatin and 0.1, 3, or 10 μg/ml YS110, or the combination of 0.01, 0.1, or 0.3 μM pemetrexed and 0.1, 3, or 10 μg/ml YS110 was added thereto (n=6). At day 2, MTT assay was conducted. Significant difference was tested by two-tailed t-test (vs Cont).
MESO1 cells (2×10^3 cells/well) or H2452 cells (2×10^3 cells/well) were inoculated to a 96-well plate. One hour later, 0.3 μM cisplatin-0.1 μM pemetrexed combination, or YS110 (10 μg/ml) plus the 0.3 μM cisplatin-0.1 μM pemetrexed combination was added thereto (n=6). At day 2, MTT assay was conducted. Significant difference was tested by two-tailed t-test (vs Cont).
Gemcitabine was studied for its effect on the growth of a mesothelioma cell line. A mesothelioma cell line MESO1, JMN, H2452, or H226 (2×10^3 cells/well) was inoculated to a 96-well plate. One hour later, gemcitabine (10^−9, 10^−8, 10^−7, 10^−6, 10^−5, or 10^−4 M) was added thereto (N=6). 2 days later, MTT assay was conducted. Significant difference was tested by two-tailed t-test (vs Cont).
H2452 cells (2×10^3 cells/well) were inoculated to a 96-well plate. One hour later, gemcitabine (0, 10^−8, 3×10^−8, or 10^−7 M) and YS110 (0, 1, 3, or 10 μg/ml) were added thereto in combination. At day 2, MTT assay was conducted. Significant difference was tested by two-tailed t-test (vs Cont). Next, interaction in concomitant use of medications was studied (n=6). The interaction between YS110 and gemcitabine used concomitantly was analyzed by two-way ANOVA.
MESO1, JMN, H2452 or H226 cells (2×10^3 cells/well were inoculated to a 96-well plate. One hour later, 3×10^−8 M or 10^−7 M gemcitabine was added thereto by concomitant use with the combination of cisplatin (0, 0.1, 0.3, or 1 μM) and pemetrexed (0, 0.03, 0.1, or 0.3 μM) (n=6). At day 2, MTT assay was conducted.
The growth inhibitory effect of gemcitabine (10^−9 to 10^−4 M) was compared using MESO1, H2452, JMN, and H226 cell lines.

YS110: humanized anti-CD26 antibody designed based on anti-CD26 mouse antibody 14D10; SEQ ID NO: 17 and 18
potentiated: effect of YS110 on the cell growth inhibitory effect of pemetrexed (0.01, 0.1, or 0.3 μM pemetrexed and 0.1, 3, or 10 μg/ml YS110) | effect of YS110 on the cell growth inhibitory effect of cisplatin (0.03, 0.3, or 1 μM cisplatin and 0.1, 3, or 10 μg/ml YS110) | effect of YS110 on the cell growth inhibitory effect of cisplatin-pemetrexed (YS110 10 μg/ml plus 0.3 μM cisplatin-0.1 μM pemetrexed) | effect of YS110 on the growth inhibitory effect of gemcitabine (gemcitabine 10^−8, 3×10^−8, or 10^−7 M and YS110 1, 3, or 10 μg/ml)
